From patent US20220185791A1, “POLYMORPHS OF A CARDIAC TROPONIN ACTIVATOR” (Amgen Inc., priority 2019, published 2022)
In brackets after ≈: the same amount, converted by molar mass.

Assays:
[1] = Solubility in water (excess solid, UPLC-UV); format: physicochemical; details: thermodynamic from solid, room temperature
Source text: Suspensions were filtered.

[2] = Solid stability (UPLC; XRPD, DSC, TGA); format: physicochemical; details: 5 weeks at 25° C./60% RH, 40° C./75% RH, 40° C./ambient or 60° C./ambient
Protocol: Drug substance was stored at 25° C./60% RH, 40° C./75% RH, 40° C./ambient or 60° C./ambient conditions. Chemical stability was determined at each time point by dissolving the drug substance in 50% acetonitrile water for ultra performance liquid chromatography (“UPLC”) analysis. Physical stability was determined by analyzing the solid by XRPD, DSC and TGA.

solubility [1]: 9 µg/mL (≈ 17.6 µM) | Physical and chemical stability on storage [2]: physically and chemically stable
Structure (SMILES): CS(=O)(=O)c1cncc(C(=O)N2[C@@H](C(=O)N[C@@H](c3cc(F)c(Cl)cc3F)C3CC3)C[C@H]3C[C@H]32)c1 [Form I, (1R,3R,5R)-N-((R)-(4-chloro-2,5-difluorophenyl)(cyclopropyl)methyl)-2-(5-(methylsulfonyl)nicotinoyl)-2-azabicyclo[3.1.0]hexane-3-carboxamide]
